Here are results for 47 compounds from US8563729B2, “Thienopyridone derivatives as AMP-activated protein kinase (AMPK) activators” (Merck Patent GmbH, priority 2008, dated 2013).

T1 sequence (Q13131 whole entry): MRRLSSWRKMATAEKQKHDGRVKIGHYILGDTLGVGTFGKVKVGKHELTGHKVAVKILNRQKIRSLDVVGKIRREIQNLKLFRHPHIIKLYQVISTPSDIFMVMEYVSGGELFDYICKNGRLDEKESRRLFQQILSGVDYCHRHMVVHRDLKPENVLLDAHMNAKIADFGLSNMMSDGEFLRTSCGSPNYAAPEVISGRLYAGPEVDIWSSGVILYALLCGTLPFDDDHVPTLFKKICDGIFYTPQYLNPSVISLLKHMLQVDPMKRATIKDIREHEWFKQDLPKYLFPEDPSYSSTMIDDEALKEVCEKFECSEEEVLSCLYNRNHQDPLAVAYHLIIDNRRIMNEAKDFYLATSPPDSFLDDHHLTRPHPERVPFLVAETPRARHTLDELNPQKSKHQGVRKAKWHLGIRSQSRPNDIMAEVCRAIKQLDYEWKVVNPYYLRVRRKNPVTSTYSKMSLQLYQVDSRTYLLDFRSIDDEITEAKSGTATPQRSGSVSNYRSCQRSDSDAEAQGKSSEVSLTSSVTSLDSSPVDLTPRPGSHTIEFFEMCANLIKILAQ
T1 sequence (Q9Y478 whole entry): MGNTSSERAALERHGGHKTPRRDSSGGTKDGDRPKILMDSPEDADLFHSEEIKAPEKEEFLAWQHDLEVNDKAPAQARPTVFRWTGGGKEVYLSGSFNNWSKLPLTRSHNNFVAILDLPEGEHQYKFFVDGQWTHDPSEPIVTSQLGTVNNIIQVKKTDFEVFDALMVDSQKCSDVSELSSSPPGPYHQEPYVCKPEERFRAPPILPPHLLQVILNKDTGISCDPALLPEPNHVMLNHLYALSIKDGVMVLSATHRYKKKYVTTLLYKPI
T1 sequence (Q9UGJ0 whole entry partner): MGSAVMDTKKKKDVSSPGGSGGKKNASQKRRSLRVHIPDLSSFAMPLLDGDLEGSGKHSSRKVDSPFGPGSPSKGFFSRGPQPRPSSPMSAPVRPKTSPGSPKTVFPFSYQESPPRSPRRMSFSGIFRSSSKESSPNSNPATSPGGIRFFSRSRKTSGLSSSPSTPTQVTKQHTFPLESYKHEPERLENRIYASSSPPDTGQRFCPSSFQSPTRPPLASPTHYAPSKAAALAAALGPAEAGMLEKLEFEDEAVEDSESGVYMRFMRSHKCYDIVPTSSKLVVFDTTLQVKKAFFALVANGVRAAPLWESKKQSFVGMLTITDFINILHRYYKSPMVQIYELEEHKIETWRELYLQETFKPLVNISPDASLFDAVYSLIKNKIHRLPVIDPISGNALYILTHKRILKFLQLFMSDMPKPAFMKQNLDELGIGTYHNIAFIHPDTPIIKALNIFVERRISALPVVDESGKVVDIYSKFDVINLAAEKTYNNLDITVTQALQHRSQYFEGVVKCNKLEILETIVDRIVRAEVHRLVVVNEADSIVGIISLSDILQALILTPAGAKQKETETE

The experiment addresses T1, AMPK protein (recombinant α1β1γ2) (Homo sapiens, UniProt Q13131+Q9Y478).
T1 construct: made in house; host or cells: E. coli
Description: AMPK enzymatic activity (Delfia, AMARA peptide substrate). The format is biochemical. Particulars: compound 30 μM vs AMP 30 μM; 125 μM ATP; ratio 90% or higher = direct activator. Here is the method:
The following biological test allows the determination of the efficacy of such compounds of formula (I) onto AMPK protein (recombinant α1β1γ2).
Human recombinant AMPK enzyme was expressed in E. Coli and was reactivated in vitro by LKB1 prior to enzyme activity determination.
AMPK enzyme activities were assayed by using A Delfia technology. AMPK enzyme activities were carried out in microtiter plates (50 mM Hepes buffer, pH 7.4 with 125 μM ATP respectively) in the presence of a synthetic peptide substrate (AMARAASAAALARRR, the “AMARA” peptide) and activators in serial dilutions. Reactions were initiated by the addition of AMPK (50-100 ng). Following mixing, the plates were incubated for 30 min at room temperature. Enzyme activity was assayed by using an anti-phosphoserine antibody to measure the quantity of phosphate incorporated into the AMARAA.
N°: Number of the molecule
Activity: Ratio between the % of control (basal activity) of compound of formula (I) at 30 μM and the % of control (basal activity) of AMP (natural substrate) at 30 μM.
Compounds of formula (I) in the table II are considered as direct activator of AMPK if the ratio is 90% or higher.
Turning to `O=C(O)c1sc2[nH]c(=O)c(-c3ccccc3)c(O)c2c1-c1ccccc1` [Compound 3], the “activity: Ratio between the % of control (basal activity) of compound of formula (I) at 30 μM and the % of control (basal activity) of AMP at 30 μM” value (“activity: Ratio between the % of control” below) is listed as 102%.
On to `CCCCc1ccc(-c2c(Cl)sc3[nH]c(=O)c(-c4ccccc4)c(O)c23)cc1` [Compound 134], for which the “activity: Ratio between the % of control” value is recorded as 93%.
Under `O=c1[nH]c2scc(-c3c(F)cccc3F)c2c(O)c1-c1ccccc1` [Compound 78] stands 160%; under `COc1ccc(-c2csc3[nH]c(=O)c(-c4ccccc4)c(O)c23)c(OC)c1` [Compound 60], 100%; under `O=c1[nH]c2scc(-c3ccccc3O)c2c(O)c1-c1ccccc1` [Compound 55], 146%.
As for `O=c1[nH]c2scc(-c3ccc(Br)c(O)c3)c2c(O)c1-c1ccccc1` [Compound 74], the “activity: Ratio between the % of control” value worked out at 112%.
In the case of `O=c1[nH]c2sc(Cl)c(-c3ccc(F)cc3)c2c(O)c1-c1ccc(F)cc1` [Compound 203], the “activity: Ratio between the % of control” value stood at 251%.
As to `COc1ccc(-c2csc3[nH]c(=O)c(-c4ccc(F)cc4)c(O)c23)cc1` [Compound 42], the “activity: Ratio between the % of control” value turned out to be 110%.
To `COc1ccc(-c2c(O)c3c(-c4ccc(F)cc4)csc3[nH]c2=O)cc1` [Compound 44] belongs 98%; to `O=c1[nH]c2sc(Cl)c(-c3ccc(O)cc3F)c2c(O)c1-c1ccccc1` [Compound 116], 120%; to `CS(=O)(=O)c1ccc(-c2c(O)c3c(-c4ccccc4)c(Cl)sc3[nH]c2=O)cc1` [Compound 154], 131%.
To `O=c1[nH]c2scc(-c3ccc(F)cc3O)c2c(O)c1-c1ccccc1` [Compound 66] belongs 144%; to `NC(=NO)c1ccc(-c2c(O)c3c(-c4ccccc4)c(Cl)sc3[nH]c2=O)cc1` [Compound 155], 95%; to `O=c1[nH]c2scc(-c3ccccc3Cl)c2c(O)c1-c1ccccc1` [Compound 58], 103%.
Turning to `O=c1[nH]c2scc(-c3cc(F)ccc3O)c2c(O)c1-c1ccccc1` [Compound 75], the “activity: Ratio between the % of control” value worked out at 135%.
Under `O=c1[nH]c2scc(-c3cccc(CO)c3)c2c(O)c1-c1ccccc1` [Compound 52] stands 176%.
As for `O=c1[nH]c2scc(-c3ccc(Br)cc3)c2c(O)c1-c1ccncc1` [Compound 29], the “activity: Ratio between the % of control” value came out at 103%.
Under `Cc1cccc(-c2csc3[nH]c(=O)c(-c4ccccc4)c(O)c23)c1` [Compound 50] stands 103%; under `O=c1[nH]c2sc(Cl)c(-c3cc(Cl)c(O)cc3F)c2c(O)c1-c1ccccc1` [Compound 113], 95%; under `COc1ccc(-c2c(Cl)sc3[nH]c(=O)c(-c4ccccc4)c(O)c23)cc1F` [Compound 110], 121%.
In the case of `O=c1[nH]c2sc(Cl)c(-c3c(F)cccc3F)c2c(O)c1-c1ccccc1` [Compound 106, 2-chloro-3-(2,6-diflurophenyl)-4-hydroxy-5-phenyl-6,7-dihydro-thieno[2,3-b]pyridin-6-one], the “activity: Ratio between the % of control” value was 115%.
`COc1ccc(-c2csc3[nH]c(=O)c(-c4ccccc4)c(O)c23)cc1F` [Compound 71]: the “activity: Ratio between the % of control” value is 131%.
Regarding `O=c1[nH]c2scc(-c3ccc(CO)cc3)c2c(O)c1-c1ccccc1` [Compound 38], the “activity: Ratio between the % of control” value is recorded as 119%.
To `Cc1ccc(-c2c(Cl)sc3[nH]c(=O)c(-c4ccccc4)c(O)c23)cc1` [Compound 135] belongs 113%.
Under `CNC(=O)c1cccc(-c2c(O)c3c(-c4ccccc4)c(Cl)sc3[nH]c2=O)c1` [Compound 141] stands 403%.
Regarding `O=c1[nH]c2scc(-c3ccc(O)cc3)c2c(O)c1-c1ccc(O)cc1` [Compound 41], the “activity: Ratio between the % of control” value came to 92%.
To `N=C(N)c1cccc(-c2c(O)c3c(-c4ccccc4)c(Cl)sc3[nH]c2=O)c1` [Compound 142] belongs 126%; to `O=c1[nH]c2sc(Cl)c(-c3ccc(O)cc3)c2c(O)c1-c1ccc(F)cc1` [Compound 132], 108%; to `O=c1[nH]c2scc(-c3ccc(O)cc3F)c2c(O)c1-c1ccccc1` [Compound 62], 101%.
To `Cc1ccc(-c2c(O)c3c(-c4ccc(F)cc4O)c(Cl)sc3[nH]c2=O)cc1` [Compound 214] belongs 207%; to `COc1ccc(-c2csc3[nH]c(=O)c(-c4ccccc4)c(O)c23)cc1` [Compound 32], 147%.
To `O=c1[nH]c2scc(-c3ccc(F)cc3F)c2c(O)c1-c1ccccc1` [Compound 64] belongs 109%.
Regarding `COc1cc(C)ccc1-c1c(Cl)sc2[nH]c(=O)c(-c3ccccc3)c(O)c12` [Compound 105], the “activity: Ratio between the % of control” value is listed as 206%.
As to `O=c1[nH]c2scc(-c3ccc(O)c(F)c3)c2c(O)c1-c1ccccc1` [Compound 72], the “activity: Ratio between the % of control” value came out at 150%.
Under `COc1ccc(-c2c(O)c3c(-c4ccc(OC)cc4)csc3[nH]c2=O)cc1` [Compound 40] stands 109%; under `O=c1[nH]c2scc(-c3ccc(F)cc3)c2c(O)c1-c1ccc(O)cc1` [Compound 45], 114%; under `COc1cc(-c2csc3[nH]c(=O)c(-c4ccccc4)c(O)c23)ccc1C` [Compound 84], 158%.
Under `O=c1[nH]c2scc(-c3ccc(Br)cc3)c2c(O)c1-c1ccccc1` [Compound 25] stands 119%.
To `O=C(O)c1cccc(-c2c(O)c3c(-c4ccc(F)cc4)c(Cl)sc3[nH]c2=O)c1` [Compound 130] belongs 117%; to `Cc1ccc(-c2csc3[nH]c(=O)c(-c4ccccc4)c(O)c23)cc1O` [Compound 85], 406%; to `O=c1[nH]c2sc(Cl)c(-c3ccc(F)cc3F)c2c(O)c1-c1ccccc1` [Compound 114], 115%.
For `COc1ccc(-c2csc3[nH]c(=O)c(-c4ccccc4)c(O)c23)c(O)c1` [Compound 81], the “activity: Ratio between the % of control” value turned out to be 223%.
To `O=c1[nH]c2sc(Cl)c(-c3cccc(CO)c3)c2c(O)c1-c1ccccc1` [Compound 124] belongs 195%; to `O=c1[nH]c2sc(Cl)c(-c3ccccc3)c2c(O)c1-c1ccccc1OCc1ccccc1` [Compound 158], 110%.
As for `CS(=O)(=O)c1cccc(-c2c(O)c3c(-c4ccccc4)c(Cl)sc3[nH]c2=O)c1` [Compound 145], the “activity: Ratio between the % of control” value came out at 90%.
Consider `O=C(O)c1ccc(-c2c(O)c3c(-c4ccccc4)c(Cl)sc3[nH]c2=O)cc1` [Compound 153], for which the “activity: Ratio between the % of control” value is listed as 111%.
Under `O=c1[nH]c2scc(-c3ccc(Br)cc3)c2c(O)c1-c1cccnc1` [Compound 28] stands 109%.
